Source: patent US5521293A (Lever Brothers Company, Division of Conopco, Inc., priority 1995, dated 1996)

How the values were obtained:
Assay type in all cases: physicochemical
[1] = Krafft point of aqueous dispersion of aldonamide; settings: 0.1% in water by weight
Procedure: The temperature at and above which surfactants begin to form micelles instead of precipitates is referred to as the Krafft point (Tk) and at this temperature the solubility of a surfactant becomes equal to its CMC (numerical value at which micelles are formed).
The Krafft point was measured by preparing 650 ml of a 0.1% or 1.0% dispersion of aldonamide in water by weight. If the surfactant was soluble at room temperature, the solution was slowly cooled to 0° C. […] (less than zero). If it precipitated out of solution, the temperature at which precipitation occurs was taken as the Krafft point.
If the surfactant was insoluble at :room temperature, the dispersion was slowly heated until the solution became homogeneous. It was then slowly cooled until precipitation occurred. The temperature at which the surfactant precipitates out of solution upon cooling was taken as the Krafft point.

[2] = Critical micelle concentration (Wilhelmy plate method); settings: 60° C.
Procedure: The critical micelle concentration (CMC) is defined as the concentration at which a surfactant forms micelles in aqueous solution. Micellization is the preferred interfacial phenomena, since certain surfactant benefits such as detergency (the solubilization of soils), foaming, wetting or emulsification depend on the formation of these aggregates in solution.
The CMC value of C8 /C10 oxypropyl D-gluconamide was determined by plotting surface tension as a function of log(concentration) and extrapolating linear points to obtain an intersection point. The concentration at this point was taken as the CMC. The technique used was the Wilhelmy plate method and the instrument used was a Lauda Auto-Tensiometer. While wishing not to be bound to theory, it is believed that surfactants with low CMC values form micelles more readily at lower concentrations than those with high CMC values.
The critical micelle concentration (CMC) value of C8 /C10 oxypropyl D-gluconamide (molecular weight=375.02 g/mole, 65.9% C8, 34.1% C10) was determined and is set forth below: […]

[3] = Surface tension at the water/air interface; settings: 60° C.
Procedure: An important characteristic feature that surfactants have is the tendency for them to absorb at the water/air interface in an oriented manner, thereby altering the interfacial free energy of that surface. The surface free energy per unit area or surface tension (γ), is a measure of this work and may be considered as the minimum amount of work required to bring sufficient surfactant molecules to the surface.
The surface tension (γ) value of C8 /C10 oxypropyl D-gluconamide was determined and is set forth below: […]

[4] = Efficiency in surface tension reduction (pC20)
Text: Since surface tension reduction depends on the replacement of water molecules at the interface by surfactant molecules, the efficiency of a surfactant in reducing interfacial tension should reflect the concentration of surfactant at the interface relative to that in bulk liquid phase. A suitable measure of efficiency with which a surfactant performs this function can be described as pC20. This is defined as the negative logarithm of the bulk phase surfactant concentration necessary to reduce the surface tension of water by 20 dyn/cm and is given as:
In general, pC20 values are usually close to the minimum concentration needed to saturate the interface with surfactant molecules.

[5] = Effectiveness in reducing surface tension (surface pressure at the CMC); settings: 60° C.
Text: Effectiveness of a surfactant in reducing surface tension is defined as the maximum reduction in surface tension that can be obtained regardless of the bulk phase surfactant concentration.
As mentioned before, surface tension reduction depends on the replacement of water molecules at the interface by surfactant molecules, therefore the effectiveness of a surfactant in reducing interfacial surface tension should reflect the saturated concentration of surfactant at the interface relative to that in bulk liquid phase. During this process the surface tension of water steadily decreases as bulk phase surfactant concentration increases. This will continue until the concentration reaches the critical micelle concentration (CMC), above which the surface tension remains nearly unchanged and the interface is saturated with surfactant. The surface tension at the CMC is therefore very close to the minimum interfacial tension or maximum surface pressure that the system can achieve. The surface pressure at this point, cmc, is a suitable measure of the effectiveness of a surfactant in reducing surface tension and is given as:
cmc =20+2.3 nRT(Γmax) log[CMC/C20 ]
n=1 which represents the number of ions whose surface concentration changes with the change in liquid phase surfactant concentration.
R=8.314×107 ergs/mol K (Gas Constant)
Γmax =-1/2·303RT(∂γ/∂log [Conc])T=3.85×10^-10 mole/cm^2
CMC/C20 =is the ratio of the critical micelle concentration to the bulk phase surfactant concentration necessary to reduce the surface tension of water by 20 dyn/cm.
The effectiveness of various surfactants in reducing surface tension ( cmc) were determined and are set forth below: […]

[6] = Effectiveness of adsorption at the interface (surface excess concentration at surface saturation); settings: for surface excess concentration at surface saturation (Γmax): 60° C. (T=333.15K)
Text: The surface excess concentration at surface saturation (Γmax) is defined as a measure of the effectiveness of surfactant adsorption at the water/air interface and represents the maximum value to which adsorption can be obtained. Effectiveness of adsorption is related to the interfacial area occupied by the surfactant molecule. The smaller the effective cross-sectional area of a surfactant at the interface, the greater its effectiveness of adsorption. The effectiveness of adsorption is an important factor in determining surfactant properties such as detergency, foaming, wetting or emulsification. While not wishing to be bound by theory, it is believed that surfactants that absorb effectively at the interface tend have tightly packed coherent interfacial films and often provide better surfactant benefits than those with loosely packed noncoherent films. The effectiveness of adsorption of C8 /C10 oxypropyl D-gluconarnide was determined using the Gibbs equation given as:
Γmax =-1/2.303RT(∂γ/∂log[Conc])T
(∂γ/∂log[Conc)T =-24.574971 ergs/cm^2 (which is equivalent to the
slope of a plot of γ versus log[Conc]) R=8.3 14×10^7 ergs/mol K (Gas Constant)
The surface excess concentration at surface saturation (Γmax) of various surfactants were determined and are set forth below: […]

[7] = Area per molecule at the interface; settings: 60° C.
Text: The area per molecule of a surfactant at the water/air interface provides information on the degree of packing and the orientation of the adsorbed surfactant molecule. While not wishing to be bound by theory, it is believed that surfactants that have small area per molecule values tend to pack more closely at the interface than those with large area per molecule values. From the surface excess concentration at surface saturation (Γmax), the area per molecule (am) of C8 /C10 oxypropyl D-gluconamide was determined and is given by:
am =1×10^16 /Nav Γmax
Γmax =-1/2·303RT(∂γ/∂log[Conc])T
NAV =6.0221×10^23 per gram mole (Avogadro's Number)
The area per molecule (am) of several surfactants were-determined and are set forth below: […]

[8] = Micellar shape and structure (packing parameter)
Text: A theory of micellar structure, based upon the geometry of various micelle shapes and the space occupied by the surfactant has been disclosed by J. N. Israelachvili, D. J. Mitchell and B. W. Ninham in the J. Chem. Soc. Faraday Trans. 2, 1525, 72, (1976) which is given as the packing parameter (p).
VT =V(CH3) +(nc -1)V(CH2) and represents the volume occupied by the hydrophobic groups in the micellar core at a given temperature.
1c =1.50+1.26 nc Å and represents the length of the hydrophobic group in the core.
am =area per molecule or the cross-sectional area occupied by the hydrophilic group at the interface.
nc =total number of carbons in the alkyl chain.
Values obtained from the packing parameter (p) represent the following structures:
The packing parameter (p) of C8 /C10 oxypropyl D-Gluconamide was determined as follows: […]

C8 /C10 oxypropyl D-gluconamide [Q]
Krafft Point (0.1%) [1]: 48 °C | CMC / micelle formation (in words) [2]: forms micelles at a surprising low critical micelle concentration | surface tension reduction (in words) [3]: significant reduction in water surface tension | pC20 (in words) [4]: high pC20 value | surface pressure at the CMC (cmc) [5]: 38.5 dyn/cm | surface excess concentration / cross sectional area (in words) [6]: small cross sectional area | surface excess concentration at surface saturation (Γmax) ([6]; listed as C8 /C10 Oxypropyl D-Gluconamide): 3.85 × 10^-10 mole/cm^2 | surface excess concentration at surface saturation (Γmax) ([6]; listed as C8 /C10 oxypropyl D-gluconamide): 3.85×10^-10 mole/cm^2 | area per molecule (am) [7]: 43.1 Å^2 | VT, volume occupied by the hydrophobic groups in the micellar core ([8]; T=333.15° K.): 379.7 Å^3 | la, length of the hydrophobic group in the core ([8]; one oxygen atom taken as one methylene group): 17.5 Å
